Source: ChEMBL document CHEMBL4507258 (2021)

Assays:
[1] = test system: Tyrosine-protein kinase ABL1 (Homo sapiens), P00519 [Q252H]; conditions: Compound concentration 1000.0 nM
[2] = biological target: Atypical kinase COQ8B, mitochondrial (Homo sapiens) (UniProt Q96D53); conditions: Compound concentration 1000.0 nM
[3] = test system: ALK tyrosine kinase receptor (Homo sapiens), Q9UM73 [C1156Y]; conditions: Compound concentration 1000.0 nM
[4] = biological target: Mitogen-activated protein kinase kinase kinase 6 (Homo sapiens) (UniProt O95382); conditions: Compound concentration 1000.0 nM
[5] = biological target: Tyrosine-protein kinase receptor UFO (Homo sapiens) (UniProt P30530); conditions: Compound concentration 1000.0 nM
[6] = biological target: Bone morphogenetic protein receptor type-1B (Homo sapiens) (UniProt O00238); conditions: Compound concentration 1000.0 nM
[7] = biological target: Protein-tyrosine kinase 6 (Homo sapiens) (UniProt Q13882); conditions: Compound concentration 1000.0 nM
[8] = biological target: Serine/threonine-protein kinase BRSK2 (Homo sapiens) (UniProt Q8IWQ3); conditions: Compound concentration 1000.0 nM
[9] = biological target: Calcium/calmodulin-dependent protein kinase type II subunit delta (Homo sapiens) (UniProt Q13557); conditions: Compound concentration 1000.0 nM
[10] = biological target: Peripheral plasma membrane protein CASK (Homo sapiens) (UniProt O14936); conditions: Compound concentration 1000.0 nM
[11] = biological target: Cyclin-dependent kinase 4 (Homo sapiens) (UniProt P11802); conditions: Compound concentration 1000.0 nM
[12] = biological target: Casein kinase I isoform alpha (Homo sapiens) (UniProt P48729); conditions: Compound concentration 1000.0 nM
[13] = biological target: Myotonin-protein kinase (Homo sapiens) (UniProt Q09013); conditions: Compound concentration 1000.0 nM
[14] = biological target: Ephrin type-A receptor 6 (Homo sapiens) (UniProt Q9UF33); conditions: Compound concentration 1000.0 nM
[15] = biological target: Ephrin type-B receptor 4 (Homo sapiens) (UniProt P54760); conditions: Compound concentration 1000.0 nM
[16] = biological target: Fibroblast growth factor receptor 4 (Homo sapiens) (UniProt P22455); conditions: Compound concentration 1000.0 nM
[17] = test system: Receptor-type tyrosine-protein kinase FLT3 (Homo sapiens), P36888 [N841I]; conditions: Compound concentration 1000.0 nM
[18] = biological target: Tyrosine-protein kinase Fyn (Homo sapiens) (UniProt P06241); conditions: Compound concentration 1000.0 nM
[19] = biological target: Tyrosine-protein kinase JAK1 (Homo sapiens) (UniProt P23458); conditions: Compound concentration 1000.0 nM
[20] = biological target: Mitogen-activated protein kinase 8 (Homo sapiens) (UniProt P45983); conditions: Compound concentration 1000.0 nM
[21] = biological target: Serine/threonine-protein kinase LATS2 (Homo sapiens) (UniProt Q9NRM7); conditions: Compound concentration 1000.0 nM
[22] = test system: Leucine-rich repeat serine/threonine-protein kinase 2 (Homo sapiens), Q5S007 [G2019S]; conditions: Compound concentration 1000.0 nM
[23] = biological target: Serine/threonine-protein kinase MAK (Homo sapiens) (UniProt P20794); conditions: Compound concentration 1000.0 nM
[24] = biological target: Dual specificity mitogen-activated protein kinase kinase 1 (Homo sapiens) (UniProt Q02750); conditions: Compound concentration 1000.0 nM
[25] = biological target: Dual specificity mitogen-activated protein kinase kinase 5 (Homo sapiens) (UniProt Q13163); conditions: Compound concentration 1000.0 nM
[26] = biological target: Hepatocyte growth factor receptor (Homo sapiens) (UniProt P08581); conditions: Compound concentration 1000.0 nM
[27] = biological target: MAP kinase-interacting serine/threonine-protein kinase 1 (Homo sapiens) (UniProt Q9BUB5); conditions: Compound concentration 1000.0 nM
[28] = biological target: Myosin light chain kinase (Homo sapiens) (UniProt Q32MK0); conditions: Compound concentration 1000.0 nM
[29] = biological target: Serine/threonine-protein kinase 24 (Homo sapiens) (UniProt Q9Y6E0); conditions: Compound concentration 1000.0 nM
[30] = biological target: Serine/threonine-protein kinase 38-like (Homo sapiens) (UniProt Q9Y2H1); conditions: Compound concentration 1000.0 nM
[31] = biological target: Serine/threonine-protein kinase Nek11 (Homo sapiens) (UniProt Q8NG66); conditions: Compound concentration 1000.0 nM
[32] = biological target: Serine/threonine-protein kinase PAK 2 (Homo sapiens) (UniProt Q13177); conditions: Compound concentration 1000.0 nM
[33] = biological target: Serine/threonine-protein kinase PAK 5 (Homo sapiens) (UniProt Q9P286); conditions: Compound concentration 1000.0 nM
[34] = biological target: Phosphatidylinositol 4-phosphate 3-kinase C2 domain-containing subunit beta (Homo sapiens) (UniProt O00750); conditions: Compound concentration 1000.0 nM
[35] = test system: Phosphatidylinositol 4,5-bisphosphate 3-kinase catalytic subunit alpha isoform (Homo sapiens), P42336 [E545A]; conditions: Compound concentration 1000.0 nM
[36] = biological target: Phosphatidylinositol 4,5-bisphosphate 3-kinase catalytic subunit delta isoform (Homo sapiens) (UniProt O00329); conditions: Compound concentration 1000.0 nM
[37] = test system: Proto-oncogene tyrosine-protein kinase receptor Ret (Homo sapiens), P07949 [M918T]; conditions: Compound concentration 1000.0 nM
[38] = biological target: High affinity nerve growth factor receptor (Homo sapiens) (UniProt P04629); conditions: Compound concentration 1000.0 nM
[39] = biological target: Transient receptor potential cation channel subfamily M member 6 (Homo sapiens) (UniProt Q9BX84); conditions: Compound concentration 1000.0 nM
[40] = biological target: Tyrosine-protein kinase receptor TYRO3 (Homo sapiens) (UniProt Q06418); conditions: Compound concentration 1000.0 nM
[41] = biological target: Mu-type opioid receptor (Homo sapiens, UniProt P35372); conditions: Compound concentration 10.0 uM
[42] = biological target: Kappa-type opioid receptor (Homo sapiens, UniProt P41145); conditions: Compound concentration 10.0 uM
[43] = biological target: Histamine H3 receptor (Homo sapiens) (UniProt Q9Y5N1); conditions: Compound concentration 10.0 uM
[44] = biological target: GABA-A receptor; anion channel (Rattus norvegicus) (UniProt O09028+P15431+P18506+P18508+P19969+P20236+P23574+P23576+P28471+P28473+P30191+P62813+P63079+P63138+Q91ZM7+Q9ES14); conditions: Compound concentration 10.0 uM

Chain of High affinity nerve growth factor receptor (Homo sapiens) (P04629 33-796 limits assumed): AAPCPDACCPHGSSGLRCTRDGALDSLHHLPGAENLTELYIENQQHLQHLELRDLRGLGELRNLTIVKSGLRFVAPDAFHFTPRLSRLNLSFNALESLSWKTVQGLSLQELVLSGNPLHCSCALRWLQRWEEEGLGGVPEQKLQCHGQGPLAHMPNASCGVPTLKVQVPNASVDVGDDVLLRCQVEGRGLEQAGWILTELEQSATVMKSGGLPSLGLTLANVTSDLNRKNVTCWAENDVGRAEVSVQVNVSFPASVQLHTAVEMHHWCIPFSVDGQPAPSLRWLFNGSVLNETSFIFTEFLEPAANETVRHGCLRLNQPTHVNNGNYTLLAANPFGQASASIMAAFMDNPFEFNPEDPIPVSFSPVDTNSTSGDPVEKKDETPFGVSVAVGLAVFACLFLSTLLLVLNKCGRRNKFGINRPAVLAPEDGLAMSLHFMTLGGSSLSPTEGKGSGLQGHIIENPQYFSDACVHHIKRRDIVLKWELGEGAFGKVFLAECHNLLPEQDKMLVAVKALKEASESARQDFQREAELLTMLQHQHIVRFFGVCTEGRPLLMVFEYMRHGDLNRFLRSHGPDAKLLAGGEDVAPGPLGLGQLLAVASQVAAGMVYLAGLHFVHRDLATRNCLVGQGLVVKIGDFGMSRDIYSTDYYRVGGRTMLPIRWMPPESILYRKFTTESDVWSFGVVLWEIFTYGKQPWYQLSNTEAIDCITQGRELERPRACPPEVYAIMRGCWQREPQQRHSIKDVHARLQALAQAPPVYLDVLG
Chain of Ephrin type-B receptor 4 (Homo sapiens) (P54760 whole entry): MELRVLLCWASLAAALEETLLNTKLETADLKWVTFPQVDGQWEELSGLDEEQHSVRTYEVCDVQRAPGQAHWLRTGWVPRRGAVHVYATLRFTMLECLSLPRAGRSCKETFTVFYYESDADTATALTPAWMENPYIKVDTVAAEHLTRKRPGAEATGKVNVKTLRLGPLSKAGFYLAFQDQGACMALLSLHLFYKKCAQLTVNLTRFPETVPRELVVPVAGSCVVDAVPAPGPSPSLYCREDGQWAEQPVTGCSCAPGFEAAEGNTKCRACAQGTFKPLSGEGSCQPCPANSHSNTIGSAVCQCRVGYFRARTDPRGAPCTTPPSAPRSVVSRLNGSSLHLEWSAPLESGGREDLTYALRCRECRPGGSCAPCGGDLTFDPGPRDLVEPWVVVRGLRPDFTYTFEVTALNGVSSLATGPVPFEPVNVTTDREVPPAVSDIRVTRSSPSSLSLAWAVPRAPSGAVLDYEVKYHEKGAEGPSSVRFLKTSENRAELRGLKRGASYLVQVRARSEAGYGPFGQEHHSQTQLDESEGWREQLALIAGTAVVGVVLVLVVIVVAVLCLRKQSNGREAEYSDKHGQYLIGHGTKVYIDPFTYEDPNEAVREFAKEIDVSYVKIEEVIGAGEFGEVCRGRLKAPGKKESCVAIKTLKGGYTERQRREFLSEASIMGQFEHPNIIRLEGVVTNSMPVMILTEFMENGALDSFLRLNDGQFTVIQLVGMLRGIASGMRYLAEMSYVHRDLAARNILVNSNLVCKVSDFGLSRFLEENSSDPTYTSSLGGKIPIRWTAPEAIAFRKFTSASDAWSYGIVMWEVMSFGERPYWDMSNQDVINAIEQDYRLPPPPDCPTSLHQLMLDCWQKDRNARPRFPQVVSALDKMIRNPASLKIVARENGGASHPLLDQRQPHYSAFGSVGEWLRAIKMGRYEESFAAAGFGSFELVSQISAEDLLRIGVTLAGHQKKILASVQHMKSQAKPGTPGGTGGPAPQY
Chain of Proto-oncogene tyrosine-protein kinase receptor Ret (Homo sapiens), P07949 [M918T] (P07949 whole entry M918T): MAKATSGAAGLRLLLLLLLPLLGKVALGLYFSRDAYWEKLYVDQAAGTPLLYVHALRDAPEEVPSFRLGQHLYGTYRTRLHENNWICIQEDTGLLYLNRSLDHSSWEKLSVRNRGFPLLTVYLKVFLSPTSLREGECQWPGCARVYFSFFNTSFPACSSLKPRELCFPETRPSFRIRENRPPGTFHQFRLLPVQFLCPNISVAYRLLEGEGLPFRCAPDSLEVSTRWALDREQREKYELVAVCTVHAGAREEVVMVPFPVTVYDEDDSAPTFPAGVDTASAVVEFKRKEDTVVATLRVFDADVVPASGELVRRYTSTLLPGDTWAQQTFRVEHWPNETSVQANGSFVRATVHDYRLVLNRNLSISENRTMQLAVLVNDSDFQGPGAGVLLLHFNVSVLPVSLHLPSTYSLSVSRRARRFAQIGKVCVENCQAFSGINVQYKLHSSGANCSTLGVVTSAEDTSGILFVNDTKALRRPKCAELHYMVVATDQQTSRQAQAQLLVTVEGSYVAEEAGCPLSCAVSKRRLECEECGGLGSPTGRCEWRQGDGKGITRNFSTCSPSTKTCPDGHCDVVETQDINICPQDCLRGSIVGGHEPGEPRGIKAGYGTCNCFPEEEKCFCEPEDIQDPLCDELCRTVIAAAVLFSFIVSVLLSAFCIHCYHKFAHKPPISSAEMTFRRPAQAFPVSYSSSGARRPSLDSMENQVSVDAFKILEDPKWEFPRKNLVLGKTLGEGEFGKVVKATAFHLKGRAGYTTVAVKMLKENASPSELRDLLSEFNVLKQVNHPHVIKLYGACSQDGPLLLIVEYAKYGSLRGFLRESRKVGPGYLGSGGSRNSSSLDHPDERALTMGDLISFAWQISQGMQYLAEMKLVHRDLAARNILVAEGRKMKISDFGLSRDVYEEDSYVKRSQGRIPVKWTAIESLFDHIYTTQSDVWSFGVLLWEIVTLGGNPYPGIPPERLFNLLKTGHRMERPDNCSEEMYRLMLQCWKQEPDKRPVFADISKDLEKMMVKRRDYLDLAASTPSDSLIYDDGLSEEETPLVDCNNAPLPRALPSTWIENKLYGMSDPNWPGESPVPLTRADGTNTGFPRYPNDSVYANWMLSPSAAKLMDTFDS
Chain of Phosphatidylinositol 4-phosphate 3-kinase C2 domain-containing subunit beta (Homo sapiens) (O00750 whole entry, the tested form may be a part, canonical isoform): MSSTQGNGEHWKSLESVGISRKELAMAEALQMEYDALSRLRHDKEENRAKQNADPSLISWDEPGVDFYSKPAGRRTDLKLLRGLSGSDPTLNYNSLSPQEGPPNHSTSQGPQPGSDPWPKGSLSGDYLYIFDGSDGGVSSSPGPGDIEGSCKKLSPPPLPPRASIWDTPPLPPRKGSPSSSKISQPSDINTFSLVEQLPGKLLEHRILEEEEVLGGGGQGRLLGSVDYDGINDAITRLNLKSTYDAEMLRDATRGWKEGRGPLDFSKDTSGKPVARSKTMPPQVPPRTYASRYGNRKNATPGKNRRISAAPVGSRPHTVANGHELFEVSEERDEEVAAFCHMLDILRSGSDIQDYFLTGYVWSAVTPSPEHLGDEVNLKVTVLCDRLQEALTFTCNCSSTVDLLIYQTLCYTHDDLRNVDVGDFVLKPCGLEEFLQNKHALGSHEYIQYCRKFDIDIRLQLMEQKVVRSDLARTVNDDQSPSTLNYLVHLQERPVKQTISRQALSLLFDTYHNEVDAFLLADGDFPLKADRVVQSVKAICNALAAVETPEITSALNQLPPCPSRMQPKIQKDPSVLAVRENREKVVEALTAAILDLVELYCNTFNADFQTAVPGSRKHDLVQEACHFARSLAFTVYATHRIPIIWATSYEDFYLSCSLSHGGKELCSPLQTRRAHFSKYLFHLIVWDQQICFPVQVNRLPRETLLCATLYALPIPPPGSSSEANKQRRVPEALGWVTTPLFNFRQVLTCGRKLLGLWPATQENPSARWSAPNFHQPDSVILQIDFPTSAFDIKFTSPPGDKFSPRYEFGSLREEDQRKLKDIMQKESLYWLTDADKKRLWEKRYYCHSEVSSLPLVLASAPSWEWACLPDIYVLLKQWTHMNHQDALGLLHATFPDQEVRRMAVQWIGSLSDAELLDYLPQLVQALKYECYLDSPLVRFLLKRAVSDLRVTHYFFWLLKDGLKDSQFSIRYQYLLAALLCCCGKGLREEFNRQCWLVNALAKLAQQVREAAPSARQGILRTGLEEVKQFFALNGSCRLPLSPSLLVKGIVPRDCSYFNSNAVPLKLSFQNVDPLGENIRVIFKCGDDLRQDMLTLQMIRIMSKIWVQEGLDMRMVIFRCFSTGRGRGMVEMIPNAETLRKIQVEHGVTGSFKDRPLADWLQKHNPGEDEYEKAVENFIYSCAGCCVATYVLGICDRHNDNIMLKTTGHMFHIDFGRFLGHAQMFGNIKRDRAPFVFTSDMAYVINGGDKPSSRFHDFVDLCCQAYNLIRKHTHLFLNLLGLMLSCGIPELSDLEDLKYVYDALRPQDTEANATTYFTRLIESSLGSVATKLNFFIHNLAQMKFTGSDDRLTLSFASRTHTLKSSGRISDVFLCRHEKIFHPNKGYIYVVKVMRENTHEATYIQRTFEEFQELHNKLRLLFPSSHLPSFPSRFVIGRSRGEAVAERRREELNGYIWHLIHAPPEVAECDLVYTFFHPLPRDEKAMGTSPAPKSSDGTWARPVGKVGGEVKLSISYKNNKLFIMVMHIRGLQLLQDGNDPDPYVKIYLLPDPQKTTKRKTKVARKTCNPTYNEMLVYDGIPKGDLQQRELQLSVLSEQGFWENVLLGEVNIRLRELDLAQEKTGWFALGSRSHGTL
Chain of Atypical kinase COQ8B, mitochondrial (Homo sapiens) (Q96D53 whole entry): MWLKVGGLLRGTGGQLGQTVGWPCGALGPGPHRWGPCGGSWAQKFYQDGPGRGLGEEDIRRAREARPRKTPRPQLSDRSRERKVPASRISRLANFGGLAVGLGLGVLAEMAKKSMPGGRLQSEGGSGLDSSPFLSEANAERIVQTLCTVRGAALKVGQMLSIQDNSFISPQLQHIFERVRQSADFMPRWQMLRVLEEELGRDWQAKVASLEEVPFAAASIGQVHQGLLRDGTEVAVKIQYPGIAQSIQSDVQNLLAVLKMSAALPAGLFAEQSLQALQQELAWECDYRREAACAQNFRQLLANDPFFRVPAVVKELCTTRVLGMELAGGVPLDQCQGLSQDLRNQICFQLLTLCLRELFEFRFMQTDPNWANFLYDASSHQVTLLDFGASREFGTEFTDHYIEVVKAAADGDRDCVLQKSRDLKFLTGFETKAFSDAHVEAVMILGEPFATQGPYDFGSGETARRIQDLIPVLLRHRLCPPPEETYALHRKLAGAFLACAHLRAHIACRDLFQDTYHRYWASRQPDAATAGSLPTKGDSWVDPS

## CCCCN(CCCC)C(=O)CN1C[C@@H](c2cc(OC)c3c(c2)OCO3)[C@H](C(=O)O)[C@H]1CC(C)(C)CCC [A-545]
[1]
  residual activity: 100%
[2]
  residual activity: 80.2%
[3]
  residual activity: 95.4%
[4]
  residual activity: 100%
[5]
  residual activity: 87.2%
[6]
  residual activity: 100%
[7]
  residual activity: 100%
[8]
  residual activity: 98.3%
[9]
  residual activity: 99.9%
[10]
  residual activity: 90.5%
[11]
  residual activity: 100%
[12]
  residual activity: 99.1%
[13]
  residual activity: 100%
[14]
  residual activity: 100%
[15]
  residual activity: 98.5%
[16]
  residual activity: 95.8%
[17]
  residual activity: 96.1%
[18]
  residual activity: 99.1%
[19]
  residual activity: 79%
[20]
  residual activity: 92.1%
[21]
  residual activity: 100%
[22]
  residual activity: 100%
[23]
  residual activity: 100%
[24]
  residual activity: 100%
[25]
  residual activity: 100%
[26]
  residual activity: 100%
[27]
  residual activity: 100%
[28]
  residual activity: 100%
[29]
  residual activity: 93.9%
[30]
  residual activity: 92.4%
[31]
  residual activity: 100%
[32]
  residual activity: 83.5%
[33]
  residual activity: 96.6%
[34]
  residual activity: 73.6%
[35]
  residual activity: 77.9%
[36]
  residual activity: 87%
[37]
  residual activity: 100%
[38]
  residual activity: 86.7%
[39]
  residual activity: 90.4%
[40]
  residual activity: 97.1%
[41]
  inhibition: 58.5%
[42]
  inhibition: 69.9%
[43]
  inhibition: 17%
[44]
  inhibition: 8.52%

## CCCCN(CCCC)C(=O)CN1C[C@H](c2cc(OC)c3c(c2)OCO3)[C@@H](C(=O)O)[C@@H]1CC(C)(C)CCC [ABT-546]
[1]
  residual activity: 100%
[2]
  residual activity: 0%
[3]
  residual activity: 100%
[4]
  residual activity: 81.7%
[5]
  residual activity: 100%
[6]
  residual activity: 59%
[7]
  residual activity: 100%
[8]
  residual activity: 95.6%
[9]
  residual activity: 100%
[10]
  residual activity: 70%
[11]
  residual activity: 42.7%
[12]
  residual activity: 98.1%
[13]
  residual activity: 100%
[14]
  residual activity: 100%
[15]
  residual activity: 100%
[16]
  residual activity: 100%
[17]
  residual activity: 100%
[18]
  residual activity: 100%
[19]
  residual activity: 98%
[20]
  residual activity: 100%
[21]
  residual activity: 100%
[22]
  residual activity: 100%
[23]
  residual activity: 100%
[24]
  residual activity: 64.8%
[25]
  residual activity: 100%
[26]
  residual activity: 100%
[27]
  residual activity: 93.3%
[28]
  residual activity: 100%
[29]
  residual activity: 100%
[30]
  residual activity: 100%
[31]
  residual activity: 85.8%
[32]
  residual activity: 100%
[33]
  residual activity: 93.8%
[34]
  residual activity: 65.9%
[35]
  residual activity: 89.8%
[36]
  residual activity: 100%
[37]
  residual activity: 100%
[38]
  residual activity: 61.2%
[39]
  residual activity: 91.6%
[40]
  residual activity: 100%
[41]
  inhibition: 14.2%
[42]
  inhibition: -1.47%
[43]
  inhibition: -3.57%
[44]
  inhibition: 19.7%
